Key:
sugar beet = test: Test B pre/postemergence sugar beet; assay type: in vivo, Beta vulgaris
Procedure, shortened: (§1)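 Herbicidal effect was estimated by eye on a ten-point control scale after plants spent twelve to sixteen days in a greenhouse following soil or foliar treatment. Foliar sprays targeted plants at one to four leaves; all doses were formulated in a non-phytotoxic solvent with surfactant.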

duck salad = test: Test B flood test duck salad; assay type: in vivo, Heteranthera limosa
Procedure, shortened: (§2)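 Plants were grown to the 2-leaf stage before treatment with test chemical, then held in a greenhouse for twelve to sixteen days. Injury was visually rated against untreated controls on a 0–10 scale, where 0 is no effect and 10 is complete control.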

surinam grass = test: Test B pre/postemergence surinam grass; assay type: in vivo, Brachiaria decumbens
Procedure, shortened: as §1

blackgrass = test: Test B pre/postemergence blackgrass; assay type: in vivo, Alopecurus myosuroides
Procedure, shortened: as §1

corn = test: Test B pre/postemergence corn; assay type: in vivo, Zea mays
Procedure, shortened: as §1

velvetleaf = test: Test B pre/postemergence velvetleaf; assay type: in vivo, Abutilon theophrasti
Procedure, shortened: as §1

cocklebur = test: Test B pre/postemergence cocklebur; assay type: in vivo, Xanthium strumarium
Procedure, shortened: as §1

bedstraw = test: Test B pre/postemergence bedstraw; assay type: in vivo, Galium aparine
Procedure, shortened: as §1

purple nutsedge = test: Test B pre/postemergence purple nutsedge; assay type: in vivo, Cyperus rotundus
Procedure, shortened: as §1

smallflower flatsedge = test: Test B flood test smallflower flatsedge; assay type: in vivo, Cyperus difformis
Procedure, shortened: as §2

bamyardgrass = test: Test B flood test barnyardgrass; assay type: in vivo, Echinochloa crus-galli
Procedure, shortened: as §2

wheat = test: Test B pre/postemergence wheat; assay type: in vivo, Triticum aestivum
Procedure, shortened: as §1

morningglory = test: Test B pre/postemergence morningglory; assay type: in vivo, Ipomoea hederacea
Procedure, shortened: as §1

rape = test: Test B pre/postemergence rape; assay type: in vivo, Brassica napus
Procedure, shortened: as §1

rice = test: Test B flood test rice; assay type: in vivo, Oryza sativa
Procedure, shortened: as §2

soybean = test: Test B pre/postemergence soybean; assay type: in vivo, Glycine max
Procedure, shortened: as §1

crabgrass = test: Test B pre/postemergence crabgrass; assay type: in vivo, Digitaria sanguinalis
Procedure, shortened: as §1

pigweed = test: Test B pre/postemergence pigweed; assay type: in vivo, Amaranthus retroflexus
Procedure, shortened: as §1

wild oat = test: Test B pre/postemergence wild oat; assay type: in vivo, Avena fatua
Procedure, shortened: as §1

giant foxtail = test: Test B pre/postemergence giant foxtail; assay type: in vivo, Setaria faberii
Procedure, shortened: as §1

[1] = test system: Abutilon theophrasti (ABUTH); test: Test F preemergence, alone and in mixture with rimsulfuron, ABUTH; assay type: in vivo; conditions: 21 days after treatment
Method: (§3) Abutilon theophrasti (ABUTH), Chenopodium album (CHEAL), Amaranthus rudis (AMATA), Setaria faberii (SETFA), Panicum dichotomiflorum (PANDI), and Digitaria sanguinalis (DIGSA) were grown from seed in pots of an artificial potting mixture in a greenhouse. Compounds of the present invention were applied at 70 and 105 g ai/ha preemergence. Rimsulfuron was applied at 8.8 and 17.5 g ai/ha. Mixtures of the compounds of the present invention and rimsulfuron were also applied.
(§4) Following application, the plants were maintained by watering as needed. A fertilizer solution of Peter's 20-20-20 (10 pounds/5 gallons of water) plus Sprint 330, a Iron Chelate micronutrient, (113.5 grams/5 gallons of water) was injected into the water with an Anderson fertilizer injection system to provide approximately 219 ppm of nitrogen with each watering. Artificial lighting was used to supplement natural light to produce a 14 hour photoperiod and: an additional one hour light period was used between 1:00 am to 2:00 am for a night interruption. Greenhouse temperatures were targeted for 27° C. in the day and 21° C. at night. At 21 days after treatment, all plants were evaluated for injury as compared to control plants that were sprayed only with non-phytotoxic solvent.
(§5) Colby's equation was used to calculate the expected additive herbicidal effect of the mixtures of Compound 21 and the mixture partners listed above. […]

[2] = test system: Panicum dichotomiflorum (PANDI); test: Test F preemergence, alone and in mixture with rimsulfuron, PANDI; assay type: in vivo; conditions: 21 days after treatment
Method: as §3, §4, §5

Amaranthus rudis (AMATA) = test: Test F preemergence, alone and in mixture with rimsulfuron, AMATA; assay type: in vivo; conditions: 21 days after treatment
Method: as §3, §4, §5

[3] = test system: Digitaria sanguinalis (DIGSA); test: Test F preemergence, alone and in mixture with rimsulfuron, DIGSA; assay type: in vivo; conditions: 21 days after treatment
Method: as §3, §4, §5

[4] = test system: Chenopodium album (CHEAL); test: Test F preemergence, alone and in mixture with rimsulfuron, CHEAL; assay type: in vivo; conditions: 21 days after treatment
Method: as §3, §4, §5

Setaria faberii (SETFA) = test: Test F preemergence, alone and in mixture with rimsulfuron, SETFA; assay type: in vivo; conditions: 21 days after treatment
Method: as §3, §4, §5

[5] = Preemergence, Rate 62 g/ha, scale of 0 to 10 where 0 is no effect and 10 is complete control
[6] = Preemergence, Rate 250 g/ha, scale of 0 to 10 where 0 is no effect and 10 is complete control
[7] = Preemergence, Rate 500 g/ha, scale of 0 to 10 where 0 is no effect and 10 is complete control
[8] = Rate 125 g/ha, Preemergence, scale of 0 to 10 where 0 is no effect and 10 is complete control
[9] = Rate 500 g/ha, Postemergence, scale 0 to 10, 0 no effect, 10 complete control
[10] = Rate 62 g/ha, headed Pre-emergence (flood test species), scale 0 to 10 (0 no effect, 10 complete control)
[11] = Rate 125 g/ha, Pre-emergence, flood test species, scale 0 to 10 where 0 is no effect and 10 is complete control
[12] = Rate 250 g/ha, Pre-emergence, flood-test species, scale 0 to 10, 0 is no effect, 10 is complete control
[13] = Rate 500 g/ha, Pre-emergence, flood test species, scale 0 to 10 (0 no effect, 10 complete control)
[14] = Rate 62 g/ha, Postemergence, scale of 0 to 10 where 0 is no effect and 10 is complete control
[15] = Rate 125 g/ha, Postemergence, scale 0 to 10
[16] = Alone: Cmpd. 0, Rimsulfuron rate 8.8
[17] = Alone: Cmpd. 0, Rimsulfuron rate 17.5

## Cc1noc(C)c1Cn1c(=O)on(C(=O)N(c2ccc(F)cc2)C(C)C)c1=O [Compound 259]
Sugar beet; [5]
  Sugarbeets plant response rating: 0
Sugar beet; [6]
  Sugarbeets plant response rating: 0
Sugar beet; [7]
  Plant response rating, Sugarbeets: 0
Sugar beet; [8]
  Sugarbeets plant response rating: 0
Sugar beet; [9]
  Sugarbeets plant response rating: 3
Duck salad; [10]
  Ducksalad plant response rating: 0
Duck salad; [11]
  Ducksalad plant response rating: 0
Duck salad; [12]
  Ducksalad plant response rating: 0
Duck salad; [13]
  Ducksalad plant response rating: 0
Surinam grass; [5]
  B. signalgrass plant response rating: 2
Surinam grass; [6]
  B. signalgrass plant response rating: 8
Surinam grass; [7]
  Plant response rating, B. signalgrass: 9
Surinam grass; [14]
  B. signalgrass plant response rating: 0
Surinam grass; Rate 125 g/ha, Postemergence, scale 0 (no effect) to 10 (complete control)
  B. signalgrass plant response rating: 0
Surinam grass; [8]
  B. signalgrass plant response rating: 5
Surinam grass; Rate 250 g/ha, Postemergence
  Plant response rating (0 to 10; 0 is no effect, 10 is complete control), B. signalgrass: 0
Surinam grass; [9]
  B. signalgrass plant response rating: 0
blackgrass; [5]
  Blackgrass plant response rating: 2
blackgrass; [6]
  Blackgrass plant response rating: 10
blackgrass; [7]
  Plant response rating, Blackgrass: 10
blackgrass; [14]
  Blackgrass plant response rating: 0
blackgrass; [15]
  Blackgrass plant response rating: 0
blackgrass; [8]
  Blackgrass plant response rating: 10
blackgrass; Rate 250 g/ha, Postemergence
  Plant response rating (0 to 10; 0 is no effect, 10 is complete control), Blackgrass: 0
blackgrass; [9]
  Blackgrass plant response rating: 0
corn; [5]
  Corn plant response rating: 0
corn; [6]
  Corn plant response rating: 3
corn; [7]
  Plant response rating, Corn: 3
corn; [14]
  Corn plant response rating: 0
corn; [15]
  Corn plant response rating: 0
corn; [8]
  Corn plant response rating: 0
corn; Rate 250 g/ha, Postemergence
  Plant response rating (0 to 10; 0 is no effect, 10 is complete control), Corn: 0
corn; [9]
  Corn plant response rating: 0
velvetleaf; [5]
  Velvetleaf plant response rating: 2
velvetleaf; [6]
  Velvetleaf plant response rating: 4
velvetleaf; [7]
  Plant response rating, Velvetleaf: 5
velvetleaf; [8]
  Velvetleaf plant response rating: 2
velvetleaf; [9]
  Velvetleaf plant response rating: 1
cocklebur; [5]
  Cocklebur plant response rating: 0
cocklebur; [6]
  Cocklebur plant response rating: 0
cocklebur; [7]
  Plant response rating, Cocklebur: 0
cocklebur; [14]
  Cocklebur plant response rating: 0
cocklebur; [15]
  Cocklebur plant response rating: 2
cocklebur; [8]
  Cocklebur plant response rating: 0
cocklebur; Rate 250 g/ha, Postemergence
  Plant response rating (0 to 10; 0 is no effect, 10 is complete control), Cocklebur: 2
cocklebur; [9]
  Cocklebur plant response rating: 3
bedstraw; [5]
  Bedstraw plant response rating: 7
bedstraw; [6]
  Bedstraw plant response rating: 10
bedstraw; [7]
  Plant response rating, Bedstraw: 10
bedstraw; [14]
  Bedstraw plant response rating: 0
bedstraw; [15]
  Bedstraw plant response rating: 0
bedstraw; [8]
  Bedstraw plant response rating: 10
Purple nutsedge; [5]
  Nutsedge plant response rating: 0
Purple nutsedge; [6]
  Nutsedge plant response rating: 0
Purple nutsedge; [7]
  Plant response rating, Nutsedge: 0
Purple nutsedge; [8]
  Nutsedge plant response rating: 0
Purple nutsedge; Rate 250 g/ha, Postemergence
  Plant response rating (0 to 10; 0 is no effect, 10 is complete control), Nutsedge: 0
Purple nutsedge; [9]
  Nutsedge plant response rating: 0
Smallflower flatsedge; [10]
  S. Flatsedge plant response rating: 0
Smallflower flatsedge; [11]
  S. Flatsedge plant response rating: 0
Smallflower flatsedge; [12]
  S. Flatsedge plant response rating: 0
Smallflower flatsedge; [13]
  S. Flatsedge plant response rating: 0
bamyardgrass; [10]
  Barnyardgrass plant response rating: 0
bamyardgrass; [11]
  Barnyardgrass plant response rating: 0
bamyardgrass; [12]
  Barnyardgrass plant response rating: 0
bamyardgrass; [13]
  Barnyardgrass plant response rating: 0
wheat; [5]
  Wheat plant response rating: 0
wheat; [6]
  Wheat plant response rating: 0
wheat; [7]
  Plant response rating, Wheat: 0
wheat; [8]
  Wheat plant response rating: 0
wheat; [9]
  Wheat plant response rating: 3
morningglory; [5]
  Morningglory plant response rating: 0
morningglory; [6]
  Morningglory plant response rating: 0
morningglory; [7]
  Plant response rating, Morningglory: 0
morningglory; [8]
  Morningglory plant response rating: 0
morningglory; Rate 250 g/ha, Postemergence
  Plant response rating (0 to 10; 0 is no effect, 10 is complete control), Morningglory: 7
morningglory; [9]
  Morningglory plant response rating: 8
rape; [5]
  Rape plant response rating: 0
rape; [7]
  Plant response rating, Rape: 9
rape; [8]
  Rape plant response rating: 0
rape; Rate 250 g/ha, Postemergence
  Plant response rating (0 to 10; 0 is no effect, 10 is complete control), Rape: 0
rice; [10]
  Rice plant response rating: 0
rice; [11]
  Rice plant response rating: 0
rice; [12]
  Rice plant response rating: 0
rice; [13]
  Rice plant response rating: 0
soybean; [5]
  Soybean plant response rating: 0
soybean; [6]
  Soybean plant response rating: 0
soybean; [7]
  Plant response rating, Soybean: 0
soybean; [8]
  Soybean plant response rating: 0
soybean; [9]
  Soybean plant response rating: 6
crabgrass; [5]
  Crabgrass plant response rating: 4
crabgrass; [7]
  Plant response rating, Crabgrass: 7
crabgrass; [8]
  Crabgrass plant response rating: 4
crabgrass; Rate 250 g/ha, Postemergence
  Plant response rating (0 to 10; 0 is no effect, 10 is complete control), Crabgrass: 0
crabgrass; [9]
  Crabgrass plant response rating: 0
pigweed; [5]
  Redroot pigweed plant response rating: 0
pigweed; [6]
  Redroot pigweed plant response rating: 2
pigweed; [7]
  Plant response rating, Redroot pigweed: 8
pigweed; [8]
  Redroot pigweed plant response rating: 0
pigweed; Rate 250 g/ha, Postemergence
  Plant response rating (0 to 10; 0 is no effect, 10 is complete control), Redroot pigweed: 6
pigweed; [9]
  Redroot pigweed plant response rating: 7
Wild oat; [5]
  Wild oats plant response rating: 2
Wild oat; [6]
  Wild oats plant response rating: 4
Wild oat; [7]
  Plant response rating, Wild oats: 4
Wild oat; [8]
  Wild oats plant response rating: 2
Wild oat; [9]
  Wild oats plant response rating: 0
Giant foxtail; [5]
  Giant foxtail plant response rating: 9
Giant foxtail; [6]
  Giant foxtail plant response rating: 9
Giant foxtail; [7]
  Plant response rating, Giant foxtail: 10
Giant foxtail; [8]
  Giant foxtail plant response rating: 9
Giant foxtail; Rate 250 g/ha, Postemergence
  Plant response rating (0 to 10; 0 is no effect, 10 is complete control), Giant foxtail: 0
Giant foxtail; [9]
  Giant foxtail plant response rating: 0

## CCS(=O)(=O)c1cccnc1S(=O)(=O)NC(=O)Nc1nc(OC)cc(OC)n1 [rimsulfuron]
[1]; [16]
  ABUTH Observed: 20%
[1]; [17]
  ABUTH Observed: 40%
[2]; [16]
  PANDI Observed: 75%
[2]; [17]
  PANDI Observed: 95%
Amaranthus rudis (AMATA); [16]
  AMATA Observed: 10%
Amaranthus rudis (AMATA); [17]
  AMATA Observed: 15%
[3]; [16]
  DIGSA Observed: 95%
[3]; [17]
  DIGSA Observed: 100%
[4]; [16]
  CHEAL Observed: 25%
[4]; [17]
  CHEAL Observed: 60%
Setaria faberii (SETFA); [16]
  SETFA Observed: 75%
Setaria faberii (SETFA); [17]
  SETFA Observed: 90%
